From PubChem BioAssay AID1963868 (Molecular Pharmacology Branch, DTP, NCI, 2024)

System: KRAS PDC tumor spheroids (HUVEC+MSC), viability
Experiment: Anticancer human tumor 254851-301-R-J1-PDC patient-derived colon carcinoma cell line growth inhibition [KRAS2]
Settings: for IC50: curve of first compound; for viability, T/C: stronger effect = lower value
Summary of the method: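 Combination screen of spheroid viability in tumor-cell co-cultures with endothelial (HUVEC) and mesenchymal stem cell stroma. Each agent was tested in half-log dilutions, topping at clinical Cmax or at 10 microM without a known Cmax.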

[1] = second compound 0.1 µM, first compound 0.0316 µM
[2] = second compound 0.1 µM, first compound 0.1 µM
[3] = second compound 0.1 µM, first compound 0.316 µM
[4] = second compound 0.1 µM, first compound 1 µM
[5] = second compound 0.1 µM, first compound 3.16 µM
[6] = second compound 0.316 µM, first compound 0.0316 µM
[7] = second compound 0.316 µM, first compound 0.1 µM
[8] = second compound 0.316 µM, first compound 0.316 µM
[9] = second compound 0.316 µM, first compound 1 µM
[10] = second compound 0.316 µM, first compound 3.16 µM
[11] = second compound 1 µM, first compound 0.0316 µM
[12] = second compound 1 µM, first compound 0.1 µM
[13] = second compound 1 µM, first compound 0.316 µM
[14] = second compound 1 µM, first compound 1 µM
[15] = second compound 1 µM, first compound 3.16 µM
[16] = second compound 3.16 µM, first compound 0.0316 µM
[17] = second compound 3.16 µM, first compound 0.1 µM
[18] = second compound 3.16 µM, first compound 0.316 µM
[19] = second compound 3.16 µM, first compound 1 µM
[20] = second compound 3.16 µM, first compound 3.16 µM
[21] = second compound 10 µM, first compound 0.0316 µM
[22] = second compound 10 µM, first compound 0.1 µM
[23] = second compound 10 µM, first compound 0.316 µM
[24] = second compound 10 µM, first compound 1 µM
[25] = second compound 10 µM, first compound 3.16 µM
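Note: spheroids exposed to compounds for seven days before readout.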
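Throughout, for viability, T/C: 100% = DMSO vehicle control luminescence of the spheroids.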

Structure (SMILES)	IC50 (second compound 0.1 µM) [nM]	IC50 (second compound 0.316 µM) [nM]	IC50 (second compound 1 µM) [nM]	IC50 (second compound 3.16 µM) [nM]	IC50 (second compound 10 µM) [nM]	viability, T/C [1] [%]	viability, T/C [2] [%]	viability, T/C [3] [%]	viability, T/C [4] [%]	viability, T/C [5] [%]	viability, T/C [6] [%]	viability, T/C [7] [%]	viability, T/C [8] [%]	viability, T/C [9] [%]	viability, T/C [10] [%]	viability, T/C [11] [%]	viability, T/C [12] [%]	viability, T/C [13] [%]	viability, T/C [14] [%]	viability, T/C [15] [%]	other results
CC1COCCN1c1cc(-c2ccnn2C)c2ccnc(-c3ccn[nH]3)c2n1 (stereo not given) + COc1cc2nc(C)nc(NC(C)c3cc(N)cc(C(F)(F)F)c3)c2cc1OC1CCOC1	37.4	425	350	114	120	46.4	32.6	42.3	36.8	14.2	112	81	58.5	31.8	25	104	77	50.5	38	24	viability, T/C (second compound 0.1 µM, first compound 0.01 µM): 70.2%; viability, T/C (second compound 0.316 µM, first compound 0.01 µM): 99.8%; viability, T/C (second compound 1 µM, first compound 0.01 µM): 103%; viability, T/C (second compound 3.16 µM, first compound 0.01 µM): 80%; viability, T/C [16]: 64.3%; viability, T/C [17]: 56.3%; viability, T/C [18]: 29.3%; viability, T/C [19]: 17.9%; viability, T/C [20]: 25.7%; viability, T/C (second compound 10 µM, first compound 0.01 µM): 99.8%; viability, T/C [21]: 92%; viability, T/C [22]: 51.3%; viability, T/C [23]: 33.5%; viability, T/C [24]: 21.8%; viability, T/C [25]: 20.9%
Cn1nccc1Nc1nccc(-c2cc3c(s2)C(C)(C)N(CCN2CCOCC2)C3=O)n1 + COc1cc2nc(C)nc(NC(C)c3cc(N)cc(C(F)(F)F)c3)c2cc1OC1CCOC1	1970	1810	1530	564	445	101	97	82.6	71.5	35.9	98.4	83.2	77.2	74.3	29.1	85.5	86.7	72.7	70	17.6	viability, T/C (second compound 0.1 µM, first compound 10 µM): 3.63%; viability, T/C (second compound 0.316 µM, first compound 10 µM): 3.95%; viability, T/C (second compound 1 µM, first compound 10 µM): 4.11%; viability, T/C [16]: 87.8%; viability, T/C [17]: 80.2%; viability, T/C [18]: 66.5%; viability, T/C [19]: 35%; viability, T/C [20]: 4.08%; viability, T/C (second compound 3.16 µM, first compound 10 µM): 2.21%; viability, T/C [21]: 72.2%; viability, T/C [22]: 71.2%; viability, T/C [23]: 56.9%; viability, T/C [24]: 31.1%; viability, T/C [25]: 2.79%; viability, T/C (second compound 10 µM, first compound 10 µM): 1.54%
